Source: patent publication US11344601B2, “Tumor microenvironment-related target TAK1 and application thereof in inhibition of tumor” (Shanghai Institutes for Biological Sciences, Chinese …, priority 2017, dated 2022)

Columns and labels:
[1] = system: PSC27 cells; test: DNA damage response foci, colony formation, cell cycle arrest and SA-β-Gal in PSC27 cells; assay type: cell-based, human
Protocol: Experimental Treatment In Vitro • 100 nM docetaxel (DTX), 100 nM paclitaxel (PTX), 200 nM vincristine (VCR), 50 μg/ml bleomycin (BLEO), 1 μM mitoxantrone (MIT), or 10 Gy ^137CS ionizating radiation (γ-radiation at 743 rad/min, RAD) was added to the culture medium when PSC27 cells grown to 80% (PSC27-Pre) to produce cell damage. After drug treatment for 6 hours, the cells were simply washed by PBS for 3 times and kept in the culture medium for 7 to 10 days, followed by subsequent experiments. […] Immunofluorescence and Histochemical Analysis • Mouse monoclonal antibody anti-phospho-Histone H2A.X (Ser139) (clone JBW301, Millipore) or mouse monoclonal antibody anti-Phosphor-53BP1 (Cat #sc-135748, Santa Cruz), and secondary antibody Alexa Fluor® 488 (or 594)-conjugated F(ab′)2 were added sequentially to slides on which cells were fixed. Nuclei were counterstained with 2 μg/ml of 4′,6-diamidino-2-phenylindole (DAPI). The most representative image was selected from the 3 observation fields for data analysis and result presentation. FV1000 laser scanning confocal microscopy (Olympus) was used to obtain cellular confocal fluorescence images to determine the extent of DNA damage. • Antibody anti-TAK1 used for histological IHC staining in clinical prostate, non-small cell lung cancer patients and breast cancer patients, was purchased from Proteintech, idib.

[2] = system: prostate cancer epithelial cells; test: Stromal-epithelial co-culture: PSC27 extracellular fluid on proliferation, migration, invasion of prostate cancer epithelial cells; assay type: cell-based, human; conditions: extracellular fluid of bleomycin-damaged PSC27 treated with TAK1 inhibitor
Protocol: c. Experimental Treatment In Vitro • 100 nM docetaxel (DTX), 100 nM paclitaxel (PTX), 200 nM vincristine (VCR), 50 μg/ml bleomycin (BLEO), 1 μM mitoxantrone (MIT), or 10 Gy ^137CS ionizating radiation (γ-radiation at 743 rad/min, RAD) was added to the culture medium when PSC27 cells grown to 80% (PSC27-Pre) to produce cell damage. After drug treatment for 6 hours, the cells were simply washed by PBS for 3 times and kept in the culture medium for 7 to 10 days, followed by subsequent experiments. 2. Plasmid Preparation and Lentiviral Transfection • Full-length human IKKα and Flag were cloned as a fusion protein between the restriction sites BamHI and XbaI in the expression vector pCR3.1. Full-length human mTOR and GST were cloned as a fusion protein between a pair of NotI restriction sites in the expression vector pcDNA3. Packaging cell line 293FT was used for cell transfection and lentivirus production. The sequences of small hairpin RNAs (shRNAs) for knocking out TRAF6 were as follows: • 5′-[…]-3′(SEQ ID NO: 1); and • 5′-[…]-3′ (SEQ ID NO: 2). • The sequences of small hairpin RNAs (shRNAs) for knocking out TAK1 were as follows: • 5′-[…]-3′(SEQ ID NO: 3); and • 5′-[…]-3′(SEQ ID NO: 4). • The sequences of small hairpin RNAs (shRNAs) for knocking out IL-1α were as follows: • 5′-[…]-3′(SEQ ID NO: 5); and • 5′-[…]-3′ (SEQ ID NO: 6). 3. Immunofluorescence and Histochemical Analysis • Mouse monoclonal antibody anti-phospho-Histone H2A.X (Ser139) (clone JBW301, Millipore) or mouse monoclonal antibody anti-Phosphor-53BP1 (Cat #sc-135748, Santa Cruz), and secondary antibody Alexa Fluor® 488 (or 594)-conjugated F(ab′)2 were added sequentially to slides on which cells were fixed. […] FV1000 laser scanning confocal microscopy (Olympus) was used to obtain cellular confocal fluorescence images to determine the extent of DNA damage. • Antibody anti-TAK1 used for histological IHC staining in clinical prostate, non-small cell lung cancer patients and breast cancer patients, was purchased from Proteintech, idib. […] Quantitative PCR for Measuring Gene Expression […]

COc1cc(O)c2c(c1)/C=C/C[C@H](O)[C@H](O)C(=O)/C=C\C[C@H](C)OC2=O [5Z-7, 5z-7-oxozeaenol]
colony forming ability of PSC27 cells ([1]; bleomycin and/or 5Z-7, Day 7): not associated with the inhibition of TAK1 activity
single-cell level of DDR foci ([1]; bleomycin-treated cells, presence or absence of inhibitor): did not change significantly
in vitro migration of prostate cancer epithelial cells promoted by stromal cell extracellular fluid [2]: significantly reduced
invasion of prostate cancer epithelial cells promoted by stromal cell extracellular fluid [2]: significantly weakened
proliferation of prostate cancer epithelial cells promoted by stromal cell extracellular fluid [2]: decreased significantly
